In patent EP0297523A2, “Process for the preparation of elaiophyline and the use thereof” (HOECHST AKTIENGESELLSCHAFT, priority 1987, dated 1989):

How the values were obtained:
[1] = test system: Trichostrongylus colubriformis; assay: Anthelmintic effect in artificially infected lambs (small intestine nematodes), coproscopy and necropsy; format: in vivo; settings: up to 14 days after application
Protocol: (§1) Die anthelminthische Wirkung vom Elaiophylin wurde an Lämmern mit 30 - 40 kg Körpergewicht untersucht. Dazu wurden die Lämmer artifiziell mit Infektionsstadien von Labmagen- (Haemonchus contortus) und Dünndarm-(Trichostrongylus colubriformis) Nematoden infiziert. Nach Abschluß der Entwicklungszeit (Präpatenzperiode) der Nematoden erfolgte die Applikation von Elaiophylin in Dosierungen von 2,5, 5,0 und 10,0 mg/kg (p.o.) bzw. 2,5 mg/kg (subcutan).
(§2) Durch koproskopische Untersuchungen vor und bis zu 14 Tagen nach der Applikation des Elaiophylins und anschließende Sektion mit helminthologischer Aufarbeitung wurde die prozentuale Reduktion der Schaf-Nematoden ermittelt (s. Tab. 1). Tabelle 1

Haemonchus contortus = assay: Anthelmintic effect in artificially infected lambs (abomasal nematodes), coproscopy and necropsy; format: in vivo; settings: up to 14 days after application
Protocol: as §1, §2

How did the “proz. Reduktion der Nematoden T. colubriformis” value ([1]; lambs 30 - 40 kg, 2,5 mg p.o.) turn out when `CC[C@@H]1[C@@H](C)O[C@@](O)([C@@H](C)[C@H](O)[C@H](C)[C@H]2OC(=O)/C=C/C=C/[C@H](C)[C@@H]([C@@H](C)[C@@H](O)[C@H](C)[C@@]3(O)C[C@@H](O[C@H]4C[C@H](O)[C@H](O)[C@H](C)O4)[C@H](CC)[C@@H](C)O3)OC(=O)/C=C/C=C/[C@@H]2C)C[C@H]1O[C@H]1C[C@H](O)[C@H](O)[C@H](C)O1` [Elaiophylin] was run?
The value was 28,4%.

And the “proz. Reduktion der Nematoden T. colubriformis” value ([1]; lambs 30 - 40 kg, 2,5 mg s.c.)?
Its value is 35,1%.

And the “proz. Reduktion der Nematoden T. colubriformis” value ([1]; lambs 30 - 40 kg, 5,0 mg p.o.)?
Its value is 73,8%.

And the “proz. Reduktion der Nematoden T. colubriformis” value ([1]; lambs 30 - 40 kg, 10,0 mg p.o.)?
The value was 73,8%.

What about the “proz. Reduktion der Nematoden H. contortus” value (Haemonchus contortus; lambs 30 - 40 kg, 2,5 mg p.o.) of the same compound?
The value was 44,6%.

What about the “proz. Reduktion der Nematoden H. contortus” value (Haemonchus contortus; lambs 30 - 40 kg, 2,5 mg s.c.) of the same compound?
The value was 46,5%.

And the “proz. Reduktion der Nematoden H. contortus” value (Haemonchus contortus; lambs 30 - 40 kg, 5,0 mg p.o.)?
Its value is 89,3%.

What about the “proz. Reduktion der Nematoden H. contortus” value (Haemonchus contortus; lambs 30 - 40 kg, 10,0 mg p.o.) of the same compound?
The value was 85,0%.
